The target of the assay is NAMPT (Homo sapiens (Human), UniProt P43490). The assay is described as follows: biochemical.

As a reminder, the IC50 is the concentration needed to halve the response being measured. Lower therefore signals inhibition by little substance.

Structures are written as SMILES.

NAMPT, sequence (P43490 whole entry, looked up): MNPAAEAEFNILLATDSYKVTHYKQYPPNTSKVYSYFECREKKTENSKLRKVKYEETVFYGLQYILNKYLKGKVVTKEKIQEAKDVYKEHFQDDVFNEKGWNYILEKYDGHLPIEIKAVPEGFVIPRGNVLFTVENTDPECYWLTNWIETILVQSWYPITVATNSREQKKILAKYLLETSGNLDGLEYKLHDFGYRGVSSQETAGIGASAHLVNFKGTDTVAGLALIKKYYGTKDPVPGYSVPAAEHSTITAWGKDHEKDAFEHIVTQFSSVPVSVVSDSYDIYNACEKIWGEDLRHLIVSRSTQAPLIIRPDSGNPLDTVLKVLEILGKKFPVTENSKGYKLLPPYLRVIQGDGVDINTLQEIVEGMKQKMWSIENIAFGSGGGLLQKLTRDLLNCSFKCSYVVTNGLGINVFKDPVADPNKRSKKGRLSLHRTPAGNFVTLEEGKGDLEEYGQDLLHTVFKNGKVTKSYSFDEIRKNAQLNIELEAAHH
Procedure: Determination of the utility of compounds having Formula (I) as binders to and inhibitors of NAMPT was performed using a Time-Resolved Fluorescence Resonance Energy Transfer (TR-FRET) binding assay.
Time-Resolved Fluorescence Resonance Energy Transfer (TR-FRET) Binding Assay of NAMPT
Plates were covered, and reactions were carried out for 2-3 hours. Plates were read with Envision (Laser Lantha low volume protocol) after 2 to 3 hours.

With `CC(C)CCC(=O)Nc1ccc(NC(=O)N2Cc3ccccc3C2)cc1` [Example 294, N-{4-[(4-methylpentanoyl)amino]phenyl}-1,3-dihydro-2H-isoindole-2-carboxamide], half-maximal inhibition (IC50) was put at 8.14 nM.

For the origin of these results see patent US9302989B2 (priority 2010, dated 2016).
